Calls of active or inactive are those of the source. No cut-off for these calls is given here.
What was measured:
[1] = molecular target: T1, Tyrosine-protein phosphatase non-receptor type 1 (Homo sapiens, UniProt P18031); assay: Inhibition of PTP1B expressed in Sf9 cells
T1 sequence (P18031 whole entry): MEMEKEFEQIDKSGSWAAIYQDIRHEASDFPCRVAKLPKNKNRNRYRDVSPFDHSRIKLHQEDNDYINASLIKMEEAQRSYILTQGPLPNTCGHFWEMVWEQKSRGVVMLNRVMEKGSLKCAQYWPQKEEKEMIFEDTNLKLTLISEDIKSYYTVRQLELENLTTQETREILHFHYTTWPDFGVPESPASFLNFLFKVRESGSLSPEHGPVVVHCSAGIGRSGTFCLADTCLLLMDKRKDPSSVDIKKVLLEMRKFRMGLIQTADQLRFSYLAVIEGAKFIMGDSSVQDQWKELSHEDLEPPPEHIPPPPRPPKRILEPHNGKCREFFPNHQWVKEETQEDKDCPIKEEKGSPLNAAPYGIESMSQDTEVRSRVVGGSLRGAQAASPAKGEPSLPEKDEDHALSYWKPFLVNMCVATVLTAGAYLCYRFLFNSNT

[2] = molecular target: T1, Tyrosine-protein phosphatase non-receptor type 1; assay: Inhibition of PTP1B in a cell-free assay
[3] = molecular target: T2, Tyrosine-protein phosphatase non-receptor type 1 (Homo sapiens) (UniProt P18031); assay: Inhibition of PTP1B expressed in Sf9 cells at 400 uM
T2 sequence (whole entry): T1 sequence (P18031 whole entry)

| IC50 [1] [µM] | IC50 [2] [µM] | Activity [3] | SMILES |
| --- | --- | --- | --- |
| 176 | – | – | COCn1cc(C(O)(C(=O)O)C(F)(F)F)c2cccc(OCc3ccccc3)c21 (stereo not given) |
| 59 | – | – | COCn1cc(C(O)(C(=O)O)C(F)(F)F)c2cc(OCCc3sc(-c4ccc(Cl)cc4)nc3C)ccc21 (stereo not given) |
| 3.2 | 3 | – | Cc1nc(-c2ccc(Cl)cc2)sc1CCOc1cc(C(O)(C(=O)O)C(F)(F)F)ccc1OCc1ccccc1 (stereo not given) |
| 500 | – | – | Cc1nc(-c2ccc(Cl)cc2)sc1CCOc1cc(C(O)(C(=O)O)C(F)(F)F)ccc1OCC(=O)O (stereo not given) |
| 27 | – | – | Cc1nc(-c2ccc(Cl)cc2)sc1CCOc1ccc2c(c1)c(C(O)(C(=O)O)C(F)(F)F)cn2Cc1ccccc1 (stereo not given) |
| 12 | – | – | COc1ccc(COc2ccc(C(O)(C(=O)O)C(F)(F)F)cc2OCCc2sc(-c3ccc(Cl)cc3)nc2C)cc1 (stereo not given) |
| 1.2 | – | – | O=C(c1ccccc1)C(c1ccccc1)c1ccc(C(F)(F)P(=O)(O)O)cc1 (stereo not given) |
| 32 | – | – | Cc1nc(-c2ccc(Cl)cc2)sc1CCOc1ccc2c(c1)c(C(O)(C(=O)O)C(F)(F)F)cn2COCC[Si](C)(C)C (stereo not given) |
| 105 | – | – | Cc1nc(-c2ccc(Cl)cc2)sc1CCOc1cc(C(O)(C(=O)O)C(F)(F)F)ccc1O (stereo not given) |
| 10 | – | – | Cc1nc(-c2ccc(Cl)cc2)sc1CCOc1cc(C(O)(C(=O)O)C(F)(F)F)ccc1OCCc1ccccc1 (stereo not given) |
| 382 | – | – | COCn1cc(C(O)(C(=O)O)C(F)(F)F)c2ccc(OCc3ccccc3)cc21 (stereo not given) |
| 23 | – | – | Cc1nc(-c2ccc(Cl)cc2)sc1CCOc1cc(C(O)(C(=O)O)C(F)(F)F)ccc1OCc1ccc(F)cc1 (stereo not given) |
| 12 | – | – | CCCCCOc1ccc(C(O)(C(=O)O)C(F)(F)F)cc1OCCc1sc(-c2ccc(Cl)cc2)nc1C (stereo not given) |
| 36 | – | – | Cc1nc(-c2ccc(Cl)cc2)sc1CCOc1cc(C(O)(C(=O)O)C(F)(F)F)ccc1OCc1ccncc1 (stereo not given) |
| 37 | – | – | Cc1nc(-c2ccc(Cl)cc2)sc1CCOc1cccc(C(O)(C(=O)O)C(F)(F)F)c1 (stereo not given) |
| 110 | – | – | COC(=O)c1c(O)cccc1OC/C=C/c1ccc(F)c(-c2cc(C(=O)O)no2)c1 |
| – | – | inactive | COCn1cc(C(O)(C(=O)O)C(F)(F)F)c2cc(OCc3ccccc3)ccc21 (stereo not given) |
| – | – | inactive | COCn1cc(C(O)(C(=O)O)C(F)(F)F)c2ccccc21 (stereo not given) |
| 123 | – | – | COC(=O)c1c(O)cccc1OCCOc1ccc2c(c1)c(C(O)(C(=O)O)C(F)(F)F)cn2COCC[Si](C)(C)C (stereo not given) |
